Converted amounts (≈) assume the structure as drawn. Like-named read-outs stand apart in the source and are kept apart here.
Tests used:
PI3K alpha = biological target: T1, PI3K alpha (Homo sapiens, UniProt P42336); experiment: PI3K alpha kinase assay (Kinase-Glo luminescence); type: biochemical
T1 construct: p85(iSH2) fusion partner (see partner chain) (N); His tag (C); made in house; host or cells: baculovirus; Tn5 (Trichoplusia ni) or TiniPro insect cells
Outline: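 Read-out: Kinase-Glo luminescence of ATP left after 60 min at room temperature. Conditions: 10 nM PI3Kα (EMV B1075), 1 μM ATP, 10 μg/mL PI substrate, Tris pH 7.5 buffer with MgCl2, NaCl, CHAPS and DTT. IC50s fitted with a four-parameter logistic model.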

PI3K beta = biological target: T2, PI3K beta (Homo sapiens, UniProt P42338); experiment: PI3K beta kinase assay (Kinase-Glo luminescence); type: biochemical
T2 construct: for the full-length p110-b subunit are generated and fused by overlapping PCR; p85(iSH2) fusion partner (see partner chain) (N); His tag (C); made in house; host or cells: baculovirus; Tn5 (Trichoplusia ni) or TiniPro insect cells
T2 sequence (P42338 with tags, fused parts or gaps limits assumed): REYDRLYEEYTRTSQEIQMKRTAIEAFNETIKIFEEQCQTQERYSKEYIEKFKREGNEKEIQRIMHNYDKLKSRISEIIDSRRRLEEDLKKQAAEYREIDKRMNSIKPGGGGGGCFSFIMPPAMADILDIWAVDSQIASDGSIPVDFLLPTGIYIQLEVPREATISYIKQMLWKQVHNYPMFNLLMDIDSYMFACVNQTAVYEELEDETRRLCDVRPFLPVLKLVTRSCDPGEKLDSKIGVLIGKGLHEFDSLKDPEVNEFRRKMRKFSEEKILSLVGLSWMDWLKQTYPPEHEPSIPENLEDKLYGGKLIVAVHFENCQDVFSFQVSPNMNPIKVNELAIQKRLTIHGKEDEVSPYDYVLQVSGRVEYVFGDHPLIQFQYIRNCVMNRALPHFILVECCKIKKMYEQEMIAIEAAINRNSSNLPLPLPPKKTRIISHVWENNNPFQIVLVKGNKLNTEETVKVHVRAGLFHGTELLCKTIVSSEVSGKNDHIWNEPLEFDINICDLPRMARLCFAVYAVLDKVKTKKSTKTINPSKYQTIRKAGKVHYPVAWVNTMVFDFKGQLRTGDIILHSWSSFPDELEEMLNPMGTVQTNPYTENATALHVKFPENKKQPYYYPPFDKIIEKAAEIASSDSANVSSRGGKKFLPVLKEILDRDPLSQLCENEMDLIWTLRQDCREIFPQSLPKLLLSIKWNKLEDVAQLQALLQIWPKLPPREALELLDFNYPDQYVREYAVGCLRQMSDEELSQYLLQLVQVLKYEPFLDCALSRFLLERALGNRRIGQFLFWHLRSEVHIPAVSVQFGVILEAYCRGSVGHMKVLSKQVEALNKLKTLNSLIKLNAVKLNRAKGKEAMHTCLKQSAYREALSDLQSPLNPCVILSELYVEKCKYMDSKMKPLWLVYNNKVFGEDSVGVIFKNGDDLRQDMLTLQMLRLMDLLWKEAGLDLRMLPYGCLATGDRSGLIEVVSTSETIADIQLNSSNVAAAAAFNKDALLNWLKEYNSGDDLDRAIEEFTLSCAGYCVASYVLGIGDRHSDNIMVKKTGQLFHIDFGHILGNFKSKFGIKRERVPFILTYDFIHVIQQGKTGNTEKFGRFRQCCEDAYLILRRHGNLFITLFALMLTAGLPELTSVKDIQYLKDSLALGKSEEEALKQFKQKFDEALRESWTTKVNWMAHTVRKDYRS
Description: (§1) In a more preferred assay, the kinase reaction is performed in a final volume of 10 μL per well of a low volume non binding CORNING, 384 well black plate (Cat. No. #3676). The final concentrations of ATP and phosphatidyl inositol (PI) in the assay are 1 μM and 10 μg/mL respectively. The reaction is started by the addition of ATP.
(§2) The components of the assay are added per well as follows:
(§3) […] in 90% DMSO per well, in columns 1-20, 8 concentrations (1/3 and 1/3.33 serial dilution step) in single. • Low control: […] of 90% DMSO in half the wells of columns 23-24 (0.45% in final). • High control: […] of reference compound (e.g. compound of Example 7 in WO 2006/122806) in the other half of columns 23-24 (2.5 μM in final). • Standard: […] of reference compound as just mentioned diluted as the test compounds in columns 21-22 • 20 mL ‘buffer’ are prepared per assay: • 200 μL of 1M TRIS HCl pH7.5 (10 mM in final) • 60 μL of 1M MgCl2 (3 mM in final) • 500 μL of 2M NaCl (50 mM in final) • 100 μL of 10% CHAPS (0.05% in final) • 200 μL of 100 mM DTT (1 mM in final) • 18.94 mL of nanopure water • 10 mL ‘PI’ are prepared per assay: • 200 μL of 1 mg/ml L-alpha-Phosphatidylinositol (Liver Bovine, Avanti Polar Lipids Cat. No. 840042C MW=909.12) prepared in 3% OctylGlucoside (10 μg/ml in final) • 9.8 mL of ‘buffer’ • 10 mL ‘ATP’ are prepared per assay: • 6.7 μL of 3 mM stock of ATP giving a final concentration of 1 μM per well • 10 mL of ‘buffer’ • 2.5 mL of each PI3K construct are prepared per assay in ‘PI’ with the following final concentration: • 10 nM PI3K alfa EMV B1075 • 25 nM beta EMV BV949 • 10 nM delta EMV BV1060 • 150 nM gamma EMV BV950 • 5 μL of ‘PI/PI3K’ are added per well. • 5 μl ‘ATP’ are added per well to start the reaction. • The plates are then incubated at room temperature for 60 minutes (alfa, beta, delta) or 120 minutes (gamma). • The reaction is terminated by the addition of 10 μL Kinase-Glo (Promega Cat. No. #6714). • The assay plates are read after 10 minutes in Synergy 2 reader (BioTek, Vermont USA) with an integration time of 100 milliseconds and sensitivity set to 191. • Output: The High control is around 60'000 counts and the Low control is 30'000 or lower • This luminescence assay gives a useful Z′ ratio between 0.4 and 0.7
PI3Kβ BV-949 p85(iSH2)-Gly Linker-p110b(Full-Length)-C-Term his Tag
(§4) IC50 is determined by a four parameter curve fitting routine that comes along with “excel fit”. […] Alternatively, IC50 values are calculated using idbsXLfit model 204, which is a 4 parameter logistic model.

PI3K delta = biological target: T3, PI3K delta (Homo sapiens, UniProt O00329); experiment: PI3K delta kinase assay (Kinase-Glo luminescence); type: biochemical
T3 construct: for the full-length p110-d subunit are generated and fused by overlapping PCR; p85(iSH2) fusion partner (see partner chain) (N); His tag (C); made in house; host or cells: baculovirus; Tn5 (Trichoplusia ni) or TiniPro insect cells
T3 sequence (O00329 with tags, fused parts or gaps limits assumed): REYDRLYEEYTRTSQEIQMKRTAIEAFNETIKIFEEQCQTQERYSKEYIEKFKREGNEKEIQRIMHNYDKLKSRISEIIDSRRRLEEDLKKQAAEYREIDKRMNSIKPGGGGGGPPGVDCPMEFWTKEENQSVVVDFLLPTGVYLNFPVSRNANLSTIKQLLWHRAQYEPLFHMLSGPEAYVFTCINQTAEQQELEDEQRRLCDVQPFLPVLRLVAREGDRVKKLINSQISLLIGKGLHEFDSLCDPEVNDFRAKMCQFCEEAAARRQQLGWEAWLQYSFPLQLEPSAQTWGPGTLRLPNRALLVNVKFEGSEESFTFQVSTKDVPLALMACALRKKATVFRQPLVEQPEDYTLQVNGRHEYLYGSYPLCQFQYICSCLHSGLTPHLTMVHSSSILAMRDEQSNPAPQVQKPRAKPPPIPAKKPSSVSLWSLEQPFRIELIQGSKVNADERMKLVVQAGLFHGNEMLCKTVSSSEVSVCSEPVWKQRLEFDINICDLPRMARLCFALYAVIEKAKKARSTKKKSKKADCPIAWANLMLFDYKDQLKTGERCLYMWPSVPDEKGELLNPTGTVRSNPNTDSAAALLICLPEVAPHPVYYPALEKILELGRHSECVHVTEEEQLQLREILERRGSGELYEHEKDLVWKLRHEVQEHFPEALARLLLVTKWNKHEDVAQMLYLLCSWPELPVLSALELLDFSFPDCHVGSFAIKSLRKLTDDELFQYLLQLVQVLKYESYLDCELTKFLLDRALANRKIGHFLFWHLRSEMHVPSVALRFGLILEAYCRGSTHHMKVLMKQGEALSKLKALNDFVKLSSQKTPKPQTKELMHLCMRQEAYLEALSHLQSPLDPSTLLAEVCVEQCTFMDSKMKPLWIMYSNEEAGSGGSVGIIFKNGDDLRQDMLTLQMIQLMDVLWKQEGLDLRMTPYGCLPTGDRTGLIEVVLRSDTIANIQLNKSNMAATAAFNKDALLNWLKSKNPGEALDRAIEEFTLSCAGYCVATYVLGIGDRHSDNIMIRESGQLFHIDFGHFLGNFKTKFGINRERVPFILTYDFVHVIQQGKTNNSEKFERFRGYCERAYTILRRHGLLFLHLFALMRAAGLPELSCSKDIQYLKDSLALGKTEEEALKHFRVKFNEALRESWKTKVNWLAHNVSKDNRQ
Description: as §1, §2, §3
PI3Kγ BV-1060 p85(iSH2)-Gly Linker-p110d(Full-Length)-C-Term his Tag
as §4

[1] = system: PKB Ser473 phosphorylation in Rat1-myr-HA-p110 alpha cells; experiment: Reverse protein array assay, PKB Ser473 phosphorylation in Rat1-myr-p110 alpha cells; type: cell-based; conditions: 0.5 h, pAkt Ser473, 30 minutes compound incubation, read-out: p-PKB IC50
Outline: (§5)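 After at least 20 h of culture, the p110 isoform-transfected Rat1 lines receive compound in an 8-step dilution series, keeping DMSO at 0.2%, for 30 minutes. Cells are then lysed and lysates arrayed on chips for fluorescence detection of Ser473-phosphorylated PKB.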

[2] = system: PKB Ser473 phosphorylation in Rat1-myr-HA-p110 delta cells; experiment: Reverse protein array assay, PKB Ser473 phosphorylation in Rat1-myr-p110 delta cells; type: cell-based; conditions: read-out: p-PKB IC50
Outline: as §5

[3] = system: S6 Ribosomal Protein phosphorylation Ser235/236 in TSC1 null mouse embryo fibroblast (MEF) cells; experiment: Reverse protein array assay, S6 Ribosomal Protein phosphorylation Ser235/236 in TSC1 null MEF cells; type: cell-based; conditions: 1 h, pS6 ribosomal protein Ser235/236, 60 minutes incubation, read-out: p-S6 IC50
Outline: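 TSC1−/− MEFs, seeded and held ≥20 h at 37 °C/5% CO2, were exposed to 8-step serial compound dilutions (0.02% DMSO final; DMSO vehicle control) for 60 min at 37 °C. Cells were then lysed on ice for 10 min and lysates spotted onto reverse protein array chips.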

Solubility at pH 6.8 = type: physicochemical
Text: The physicochemical properties of relevance for the absorption of the compound, such as the solubility and the membrane permeability, especially at a pH close to neutral pH can be measured using the procedure as described by L. ZHOU et al. in JOURNAL OF PHARMACEUTICAL SCIENCES, VOL. 96, NO. 11, p. 3052-3071 (2007) for the solubility at pH 6.8 and the procedure as described by F. Wohnsland and B. Faller in Journal of Medicinal Chemistry Vol 44, p. 923-930 (2001) for the Parallel Artificial Membrane Permeability Assay (PAMPA) at pH 6.8.

mTOR = biological target: T4, mTOR (Homo sapiens, UniProt P42345); experiment: Biochemical assay for m-TOR by TR-FRET; conditions: 8 μM ATP, 400 nM GFP-4EBP1, 0.5 nM mTOR
T4 construct: purchased Invitrogen Corporation (Carlsbad/CA, USA) PV4753
T4 sequence (P42345 1360-2549 limits assumed): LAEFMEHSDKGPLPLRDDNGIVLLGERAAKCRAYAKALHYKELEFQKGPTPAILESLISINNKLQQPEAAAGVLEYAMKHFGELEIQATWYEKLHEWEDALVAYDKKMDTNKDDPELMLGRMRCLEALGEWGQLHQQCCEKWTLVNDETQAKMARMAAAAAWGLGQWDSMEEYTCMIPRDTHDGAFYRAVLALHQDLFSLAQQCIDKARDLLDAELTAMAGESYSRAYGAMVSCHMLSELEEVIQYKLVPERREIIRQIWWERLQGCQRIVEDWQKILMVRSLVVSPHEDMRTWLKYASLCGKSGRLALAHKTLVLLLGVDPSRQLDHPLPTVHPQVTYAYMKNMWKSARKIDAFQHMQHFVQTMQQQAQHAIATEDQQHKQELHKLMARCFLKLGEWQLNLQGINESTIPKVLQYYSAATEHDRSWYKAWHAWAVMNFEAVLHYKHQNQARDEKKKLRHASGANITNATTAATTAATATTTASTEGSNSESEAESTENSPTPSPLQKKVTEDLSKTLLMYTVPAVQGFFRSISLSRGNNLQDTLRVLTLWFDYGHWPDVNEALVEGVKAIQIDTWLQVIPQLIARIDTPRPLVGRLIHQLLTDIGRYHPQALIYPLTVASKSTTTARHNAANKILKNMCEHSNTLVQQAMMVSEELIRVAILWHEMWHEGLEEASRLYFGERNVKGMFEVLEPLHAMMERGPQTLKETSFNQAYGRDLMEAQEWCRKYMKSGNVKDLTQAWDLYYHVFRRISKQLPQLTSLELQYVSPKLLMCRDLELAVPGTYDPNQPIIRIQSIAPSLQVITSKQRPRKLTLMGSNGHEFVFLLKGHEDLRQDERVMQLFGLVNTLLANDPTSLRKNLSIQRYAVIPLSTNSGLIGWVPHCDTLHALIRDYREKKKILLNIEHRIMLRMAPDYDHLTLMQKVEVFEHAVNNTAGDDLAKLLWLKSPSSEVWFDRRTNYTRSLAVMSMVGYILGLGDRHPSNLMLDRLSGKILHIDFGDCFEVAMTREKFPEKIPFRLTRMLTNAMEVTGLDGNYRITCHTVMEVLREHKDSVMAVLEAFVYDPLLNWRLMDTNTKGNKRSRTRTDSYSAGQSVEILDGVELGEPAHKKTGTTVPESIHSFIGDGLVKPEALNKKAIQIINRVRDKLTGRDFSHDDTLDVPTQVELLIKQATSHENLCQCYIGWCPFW
Outline: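 TR-FRET read-out: Tb-labelled anti-p4EBP1 pThr46 antibody (0.5 nM), added in EDTA to stop the reaction, detects phosphorylated GFP-4EBP1 after 15 min. Kinase step used 0.5 nM mTOR, 400 nM substrate, 8 μM ATP, MnCl2-containing HEPES buffer pH 7.5, room temperature.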

[4] = system: PKB Ser473 phosphorylation in Rat1-myr-HA-p110 beta cells; experiment: Reverse protein array assay, PKB Ser473 phosphorylation in Rat1-myr-p110 beta cells; type: cell-based; conditions: 0.5 h, pAkt Ser473, 30 minutes incubation, read-out: p-PKB IC50
Outline: as §5

[5] = pH 6.8, aqueous buffer, thermodynamic from solid, read-out: solubility

T1 sequence (P42336 with tags, fused parts or gaps limits assumed): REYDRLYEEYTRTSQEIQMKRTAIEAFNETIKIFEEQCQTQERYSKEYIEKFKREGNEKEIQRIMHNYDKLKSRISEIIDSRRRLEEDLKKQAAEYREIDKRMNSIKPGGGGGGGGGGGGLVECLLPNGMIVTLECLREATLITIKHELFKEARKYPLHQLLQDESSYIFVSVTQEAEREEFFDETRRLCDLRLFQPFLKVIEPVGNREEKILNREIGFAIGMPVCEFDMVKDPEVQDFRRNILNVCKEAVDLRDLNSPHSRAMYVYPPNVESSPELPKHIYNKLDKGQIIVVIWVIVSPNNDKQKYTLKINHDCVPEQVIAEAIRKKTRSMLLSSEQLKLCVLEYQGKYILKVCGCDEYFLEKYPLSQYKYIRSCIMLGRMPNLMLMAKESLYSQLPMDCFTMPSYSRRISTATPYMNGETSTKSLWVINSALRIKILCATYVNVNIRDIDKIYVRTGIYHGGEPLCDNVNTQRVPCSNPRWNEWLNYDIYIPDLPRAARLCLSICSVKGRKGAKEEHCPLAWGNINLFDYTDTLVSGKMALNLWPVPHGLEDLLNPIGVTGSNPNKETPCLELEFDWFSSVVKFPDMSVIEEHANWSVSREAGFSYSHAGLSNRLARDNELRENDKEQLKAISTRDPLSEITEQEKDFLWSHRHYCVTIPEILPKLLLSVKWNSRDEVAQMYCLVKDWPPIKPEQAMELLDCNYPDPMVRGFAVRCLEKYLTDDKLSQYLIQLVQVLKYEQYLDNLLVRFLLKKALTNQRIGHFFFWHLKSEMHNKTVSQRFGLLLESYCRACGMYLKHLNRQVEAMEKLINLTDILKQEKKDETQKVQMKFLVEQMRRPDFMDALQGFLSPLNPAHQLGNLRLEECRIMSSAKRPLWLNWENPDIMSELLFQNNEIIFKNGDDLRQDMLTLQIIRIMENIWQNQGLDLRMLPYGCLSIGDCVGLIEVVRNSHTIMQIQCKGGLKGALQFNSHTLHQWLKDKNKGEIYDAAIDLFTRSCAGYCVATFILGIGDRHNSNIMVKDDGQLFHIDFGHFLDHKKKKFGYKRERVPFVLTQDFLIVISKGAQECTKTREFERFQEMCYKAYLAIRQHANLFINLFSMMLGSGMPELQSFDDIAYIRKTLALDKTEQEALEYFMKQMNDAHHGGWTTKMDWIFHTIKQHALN

SMILES	IC50 (PI3K alpha)	IC50 (PI3K beta)	IC50 (PI3K delta)	IC50 [1]	IC50 [2]	solubility (Solubility at pH 6.8; [5])	IC50 (mTOR)	solubility (Solubility at pH 6.8; pH 6.8)	IC50 [4]	IC50 [3]
Cc1nn(C)cc1-n1c(=O)n(C)c2cnc3ccc(-c4cnn(CCO)c4)cc3c21 [Example 106, 1-(1,3-Dimethyl-1H-pyrazol-4-yl)-8-[1-(2-hydroxy-ethyl)-1H-pyrazol-4-yl]-3-methyl-1,3-dihydro-imidazo[4,5-c]quinolin-2-one]	154 nM		147 nM			> 403 µg/mL	672 nM			
Cn1nccc1-n1c(=O)n(C)c2cnc3ccc(-c4ccnc(F)c4)cc3c21 [Example 11, 8-(2-Fluoro-pyridin-4-yl)-3-methyl-1-(2-methyl-2H-pyrazol-3-yl)-1,3-dihydro-imidazo[4,5-c]quinolin-2-one]			810 nM					2 µg/mL (≈ 5.34 µM)		
CCNc1cc(-c2ccc3ncc4c(c3c2)n(-c2cn(C)nc2C)c(=O)n4C)cnc1Cl [Example 153.2, 8-(6-Chloro-5-ethylamino-pyridin-3-yl)-1-(1,3-dimethyl-1H-pyrazol-4-yl)-3-methyl-1,3-dihydro-imidazo[4,5-c]quinolin-2-one]	15 nM	9 nM	3 nM	< 5 nM	5 nM		< 3 nM		< 5 nM	
Cc1nn(C)cc1-n1c(=O)n(C)c2cnc3ccc(-c4cncc(C(C)(C)CO)c4)cc3c21 [Example 229, 1-(1,3-Dimethyl-1H-pyrazol-4-yl)-8-[5-(2-hydroxy-1,1-dimethyl-ethyl)-pyridin-3-yl]-3-methyl-1,3-dihydro-imidazo[4,5-c]quinolin-2-one]	8 nM	8 nM	5 nM	279 nM	235 nM				275 nM	11 nM
COc1ccc(-c2ccc3ncc4[nH]c(=O)n(-c5cn(C)nc5C)c4c3c2)cc1OC [Example 111, 8-(3,4-Dimethoxy-phenyl)-1-(1,3-dimethyl-1H-pyrazol-4-yl)-1,3-dihydro-imidazo[4,5-c]quinolin-2-one]	27 nM	41 nM	50 nM	10 nM	18 nM				13 nM	3 nM
CC(=O)NCc1cncc(-c2ccc3ncc4c(c3c2)n(-c2cn(C)nc2C)c(=O)n4C)c1 [Example 231, N-{5-[1-(1,3-Dimethyl-1H-pyrazol-4-yl)-3-methyl-2-oxo-2,3-dihydro-1H-imidazo[4,5-c]quinolin-8-yl]-pyridin-3-ylmethyl}-acetamide]	405 nM					413 µg/mL (≈ 935 µM)	542 nM			
Cc1cc(-n2c(=O)n(C)c3cnc4ccc(-c5cccnc5F)cc4c32)n(C)n1 [Example 9, 1-(2,5-Dimethyl-2H-pyrazol-3-yl)-8-(2-fluoro-pyridin-3-yl)-3-methyl-1,3-dihydro-imidazo[4,5-c]quinolin-2-one]	246 nM		737 nM			9 µg/mL (≈ 23.2 µM)	383 nM			
Cc1nn(C(C)C)cc1-n1c(=O)n(C)c2cnc3ccc(-c4ccccn4)cc3c21 [Example 113, 1-(1-Isopropyl-3-methyl-1H-pyrazol-4-yl)-3-methyl-8-pyridin-2-yl-1,3-dihydro-imidazo[4,5-c]quinolin-2-one]				818 nM		30 µg/mL (≈ 75.3 µM)				
CNC(=O)Cc1cncc(-c2ccc3ncc4c(c3c2)n(-c2cn(C)nc2C)c(=O)n4C)c1 [Example 228, 2-{5-[1-(1,3-Dimethyl-1H-pyrazol-4-yl)-3-methyl-2-oxo-2,3-dihydro-1H-imidazo[4,5-c]quinolin-8-yl]-pyridin-3-yl}-N-methyl-acetamide]	85 nM		166 nM			> 441 µg/mL				

Second part, led by results:

IC50 (PI3K alpha)	IC50 (PI3K beta)	IC50 (PI3K delta)	IC50 [1]	IC50 [2]	solubility (Solubility at pH 6.8; [5])	IC50 (mTOR)	solubility (Solubility at pH 6.8; pH 6.8)	IC50 [4]	SMILES	IC50 [3]
28 nM	222 nM	33 nM	301 nM	833 nM					CCOCc1cc(-c2ccc3ncc4c(c3c2)n(-c2c(C)nn(C)c2C)c(=O)n4C)cnc1N [Example 166.5, 8-(6-Amino-5-ethoxymethyl-pyridin-3-yl)-3-methyl-1-(1,3,5-trimethyl-1H-pyrazol-4-yl)-1,3-dihydro-imidazo[4,5-c]quinolin-2-one]	91.7 nM
20 nM	71 nM	4 nM	< 5 nM	73 nM		113 nM		81 nM	CNc1ncc(-c2ccc3ncc4c(c3c2)n(-c2cn(C(C)C)nc2C)c(=O)n4C)cc1COC [Example 248.1, 1-(1-Isopropyl-3-methyl-1H-pyrazol-4-yl)-8-(5-methoxymethyl-6-methylamino-pyridin-3-yl)-3-methyl-1,3-dihydro-imidazo[4,5-c]quinolin-2-one]	
173 nM	76 nM	80 nM	253 nM	458 nM				245 nM	CCNc1cc(-c2ccc3ncc4c(c3c2)n(-c2c(C)noc2C)c(=O)n4C)cnc1F [Example 154.2, 1-(3,5-Dimethyl-isoxazol-4-yl)-8-(5-ethylamino-6-fluoro-pyridin-3-yl)-3-methyl-1,3-dihydro-imidazo[4,5-c]quinolin-2-one]	39 nM

Source: patent US20140005163A1 (NOVARTIS AG, priority 2010, published 2014)
